According to patent publication US5869494A, “Uses for barbituric acid analogs” (priority 1997, dated 1999):

Assays:
Test in all cases: NCI tumor cell line screen (SRB assay)
Type in all cases: cell-based
Design in all cases: activity: dose or concentration left out as unconfirmed
[1] = system: NCI-H460; conditions: Homo sapiens, read-out: PERCENT GROWTH
Method: (§1) The National Cancer Institute carried out the studies at the direction of the present inventor.
(§2) In the tests, the National Cancer Institute used the SRB (sulforhodamine B) assay as described by Skehan et al., (Journal of the National Cancer Institute, 82:13, Jul. 4, 1990, 1107-1112). Briefly, the assay is as follows. TCA-fixed cells were stained for 30 minutes with 0.4% (wt/vol) SRB dissolved in 1% acetic acid. At the end of the staining period, SRB was removed and cultures were quickly rinsed four times with 1% acetic acid to remove unbound dye. The acetic acid was poured directly into the culture wells from a beaker. […] Residual wash solution was removed by sharply flicking plates over a sink, which ensured the complete removal of rinsing solution. […] After being rinsed, the cultures were air dried until no standing moisture was visible. Bound dye was solubilized with 10 mM unbuffered Tris base (pH 10.5) for 5 minutes on a gyratory shaker.
(§3) Optical density (OD) was read in either a UVmax microtiter plate reader (Molecular Devices, Menlo Park, Calif.) or a Beckman DU-70 spectrophotometer. For maximum sensitivity, OD was measured at 564 nm. Because readings were linear with dye concentrations only below 1.8 OD units, however, suboptimal wavelengths were generally used, so that all samples in an experiment remained within the linear OD range. With most cell lines, wavelengths of approximately 490-530 nm worked well for this purpose.
(§4) Nine different non-small cell lung carcinoma cell lines, six different colon carcinoma cell lines, six different CNS (central nervous system) carcinoma cell lines, seven different melanoma cell lines, six different ovarian carcinoma cell lines, and eight different renal carcinoma cell lines were tested.

[2] = system: HCT-116; conditions: Homo sapiens, read-out: PERCENT GROWTH
Method: as §1, §2, §3, §4

[3] = system: HCC-2998; conditions: Homo sapiens, read-out: PERCENT GROWTH
Method: as §1, §2, §3, §4

[4] = system: SF-295; conditions: Homo sapiens, read-out: PERCENT GROWTH
Method: as §1, §2, §3, §4

[5] = system: M14; conditions: Homo sapiens, read-out: PERCENT GROWTH
Method: as §1, §2, §3, §4

[6] = system: SK-MEL-2; conditions: Homo sapiens, read-out: PERCENT GROWTH
Method: as §1, §2, §3, §4

[7] = system: CAKI-1; conditions: Homo sapiens, read-out: PERCENT GROWTH
Method: as §1, §2, §3, §4

[8] = system: LOX IMVI; conditions: Homo sapiens, read-out: PERCENT GROWTH
Method: as §1, §2, §3, §4

[9] = system: NCI-H23; conditions: Homo sapiens, read-out: PERCENT GROWTH
Method: as §1, §2, §3, §4

[10] = system: IGROV1; conditions: Homo sapiens, IGROV-1, read-out: PERCENT GROWTH
Method: as §1, §2, §3, §4

[11] = system: SNB-75; conditions: Homo sapiens, read-out: PERCENT GROWTH
Method: as §1, §2, §3, §4

[12] = system: UACC-62; conditions: Homo sapiens, read-out: PERCENT GROWTH
Method: as §1, §2, §3, §4

[13] = system: OVCAR-5; conditions: Homo sapiens, read-out: PERCENT GROWTH
Method: as §1, §2, §3, §4

[14] = system: SW-620; conditions: Homo sapiens, read-out: PERCENT GROWTH
Method: as §1, §2, §3, §4

[15] = system: OVCAR-3; conditions: Homo sapiens, read-out: PERCENT GROWTH
Method: as §1, §2, §3, §4

[16] = system: A549/ATCC; conditions: Homo sapiens, read-out: PERCENT GROWTH
Method: as §1, §2, §3, §4

[17] = system: OVCAR-4; conditions: Homo sapiens, read-out: PERCENT GROWTH
Method: as §1, §2, §3, §4

[18] = system: A498; conditions: Homo sapiens, read-out: PERCENT GROWTH
Method: as §1, §2, §3, §4

Compound: CCCCN1C(=O)CC(=O)N(CCCC)C1=S [Compound C1, 4,6(1H, 5H)-pyrimidinedione, 1,3-dibutyldihydro-2-thioxo]
- activity ([1]; 10^-3.0 Molar): -54%
- activity at 100 µM ([1]; 10^-4.0 Molar): 82%
- activity at 10 µM ([1]; 10^-5.0 Molar): 97%
- activity at 1 µM ([1]; 10^-6.0 Molar): 100%
- activity at 0.1 µM ([1]; 10^-7.0 Molar): 99%
- activity ([2]; 10^-3.0 Molar): -100%
- activity at 100 µM ([2]; 10^-4.0 Molar): 48%
- activity at 10 µM ([2]; 10^-5.0 Molar): 118%
- activity at 1 µM ([2]; 10^-6.0 Molar): 111%
- activity at 0.1 µM ([2]; 10^-7.0 Molar): 109%
- activity ([3]; 10^-3.0 Molar): -82%
- activity at 10 µM ([3]; 10^-5.0 Molar): 109%
- activity at 0.1 µM ([3]; 10^-7.0 Molar): 113%
- activity ([4]; 10^-3.0 Molar): -95%
- activity at 100 µM ([4]; 10^-4.0 Molar): 47%
- activity at 10 µM ([4]; 10^-5.0 Molar): 100%
- activity at 1 µM ([4]; 10^-6.0 Molar): 100%
- activity at 0.1 µM ([4]; 10^-7.0 Molar): 104%
- activity ([5]; 10^-3.0 Molar): -100%
- activity at 100 µM ([5]; 10^-4.0 Molar): 94%
- activity at 10 µM ([5]; 10^-5.0 Molar): 105%
- activity at 1 µM ([5]; 10^-6.0 Molar): 100%
- activity at 0.1 µM ([5]; 10^-7.0 Molar): 106%
- activity ([6]; 10^-3.0 Molar): -55%
- activity at 100 µM ([6]; 10^-4.0 Molar): 87%
- activity at 10 µM ([6]; 10^-5.0 Molar): 100%
- activity at 1 µM ([6]; 10^-6.0 Molar): 106%
- activity at 0.1 µM ([6]; 10^-7.0 Molar): 110%
- activity ([7]; 10^-3.0 Molar): -100%
- activity at 100 µM ([7]; 10^-4.0 Molar): 92%
- activity at 10 µM ([7]; 10^-5.0 Molar): 73%
- activity at 1 µM ([7]; 10^-6.0 Molar): 85%
- activity at 0.1 µM ([7]; 10^-7.0 Molar): 103%
- activity ([8]; 10^-3.0 Molar): -100%
- activity at 100 µM ([8]; 10^-4.0 Molar): 65%
- activity at 10 µM ([8]; 10^-5.0 Molar): 102%
- activity at 1 µM ([8]; 10^-6.0 Molar): 106%
- activity at 0.1 µM ([8]; 10^-7.0 Molar): 101%
- activity ([9]; 10^-3.0 Molar): -62%
- activity at 100 µM ([9]; 10^-4.0 Molar): 63%
- activity at 10 µM ([9]; 10^-5.0 Molar): 98%
- activity at 1 µM ([9]; 10^-6.0 Molar): 103%
- activity at 0.1 µM ([9]; 10^-7.0 Molar): 97%
- activity ([10]; 10^-3.0 Molar): -85%
- activity at 100 µM ([10]; 10^-4.0 Molar): 88%
- activity at 10 µM ([10]; 10^-5.0 Molar): 103%
- activity at 1 µM ([10]; 10^-6.0 Molar): 107%
- activity at 0.1 µM ([10]; 10^-7.0 Molar): 105%
- activity ([11]; 10^-3.0 Molar): -65%
- activity at 100 µM ([11]; 10^-4.0 Molar): 83%
- activity at 10 µM ([11]; 10^-5.0 Molar): 120%
- activity at 1 µM ([11]; 10^-6.0 Molar): 113%
- activity at 0.1 µM ([11]; 10^-7.0 Molar): 106%
- activity ([12]; 10^-3.0 Molar): -79%
- activity at 100 µM ([12]; 10^-4.0 Molar): 53%
- activity at 10 µM ([12]; 10^-5.0 Molar): 88%
- activity at 1 µM ([12]; 10^-6.0 Molar): 91%
- activity at 0.1 µM ([12]; 10^-7.0 Molar): 94%
- activity ([13]; 10^-3.0 Molar): -97%
- activity at 100 µM ([13]; 10^-4.0 Molar): 97%
- activity at 10 µM ([13]; 10^-5.0 Molar): 99%
- activity at 1 µM ([13]; 10^-6.0 Molar): 98%
- activity at 0.1 µM ([13]; 10^-7.0 Molar): 102%
- activity ([14]; 10^-3.0 Molar): -39%
- activity at 100 µM ([14]; 10^-4.0 Molar): 85%
- activity at 10 µM ([14]; 10^-5.0 Molar): 99%
- activity at 1 µM ([14]; 10^-6.0 Molar): 100%
- activity at 0.1 µM ([14]; 10^-7.0 Molar): 110%
- activity ([15]; 10^-3.0 Molar): -93%
- activity at 100 µM ([15]; 10^-4.0 Molar): 89%
- activity at 10 µM ([15]; 10^-5.0 Molar): 110%
- activity at 1 µM ([15]; 10^-6.0 Molar): 114%
- activity at 0.1 µM ([15]; 10^-7.0 Molar): 110%
- activity ([16]; 10^-3.0 Molar): -98%
- activity at 100 µM ([16]; 10^-4.0 Molar): 67%
- activity at 10 µM ([16]; 10^-5.0 Molar): 95%
- activity at 1 µM ([16]; 10^-6.0 Molar): 95%
- activity at 0.1 µM ([16]; 10^-7.0 Molar): 98%
- activity ([17]; 10^-3.0 Molar): -75%
- activity at 100 µM ([17]; 10^-4.0 Molar): 66%
- activity at 10 µM ([17]; 10^-5.0 Molar): 105%
- activity at 1 µM ([17]; 10^-6.0 Molar): 104%
- activity at 0.1 µM ([17]; 10^-7.0 Molar): 101%
- activity ([18]; 10^-3.0 Molar): -81%
- activity at 100 µM ([18]; 10^-4.0 Molar): 62%
- activity at 10 µM ([18]; 10^-5.0 Molar): 96%
- activity at 1 µM ([18]; 10^-6.0 Molar): 105%
- activity at 0.1 µM ([18]; 10^-7.0 Molar): 99%
